In US20240116985A1, “STAPLED PEPTIDES AND METHODS THEREOF” (priority 2020, published 2024):
Where two headings read alike, the source gives them in different places.

Tests used:
[1] = molecular target: T1, full-length beta-Catenin (Uniprot ID P35222) (Homo sapiens, UniProt P35222); assay: Fluorescence polarization IC50 (beta-catenin / 5FAM-TCF4 10-53 competition); format: binding
T1 construct: 10 nM full-length beta-Catenin (Uniprot ID P35222)
T1 sequence (P35222 1-781): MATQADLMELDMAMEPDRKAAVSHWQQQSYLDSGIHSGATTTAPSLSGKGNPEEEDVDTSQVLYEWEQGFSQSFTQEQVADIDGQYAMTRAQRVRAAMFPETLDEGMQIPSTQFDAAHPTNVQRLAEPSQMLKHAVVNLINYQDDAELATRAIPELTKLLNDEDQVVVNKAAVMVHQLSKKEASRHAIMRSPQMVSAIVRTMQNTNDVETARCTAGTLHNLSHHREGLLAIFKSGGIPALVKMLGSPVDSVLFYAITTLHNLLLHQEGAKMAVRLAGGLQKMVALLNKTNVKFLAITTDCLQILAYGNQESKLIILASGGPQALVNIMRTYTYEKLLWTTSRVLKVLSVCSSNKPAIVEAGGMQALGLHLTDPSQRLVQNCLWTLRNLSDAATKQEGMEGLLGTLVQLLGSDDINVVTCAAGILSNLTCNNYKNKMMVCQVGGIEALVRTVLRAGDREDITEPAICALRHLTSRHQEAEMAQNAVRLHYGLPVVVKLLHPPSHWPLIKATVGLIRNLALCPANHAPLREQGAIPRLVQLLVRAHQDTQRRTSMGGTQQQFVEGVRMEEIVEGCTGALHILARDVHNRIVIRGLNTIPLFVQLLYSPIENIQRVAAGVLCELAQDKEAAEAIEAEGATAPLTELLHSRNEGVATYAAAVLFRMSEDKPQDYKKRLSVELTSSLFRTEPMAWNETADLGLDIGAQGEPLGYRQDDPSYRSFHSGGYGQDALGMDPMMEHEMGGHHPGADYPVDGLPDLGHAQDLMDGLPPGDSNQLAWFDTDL

CHI Log D procedure = format: physicochemical; details: for CHI Log D: pH 7.4; for chromatographic logD: pH 7.4, CHI Log D
[2] = fluorescence polarization, read-out: beta-Catenin FP IC50

Compound | IC50 [1, 2] [nM] | IC50 ([1]; read-out: FP EC50) [nM] | CHI Log D (CHI Log D procedure) | IC50 ([1]; read-out: beta-Catenin FP IC50) [nM] | chromatographic logD (CHI Log D procedure)
CC(=O)N1CCC[C@]12CC=CCCCC1(CCCC=CCCCCCC[C@@](C)(C(=O)N[C@@H](Cc3ccccc3)C(=O)N[C@@H](Cc3csc4ccccc34)C(=O)N[C@@H](CCC(N)=O)C(=O)NC(C)(C)C(N)=O)NC(=O)[C@H](CC(N)=O)NC(=O)[C@H](Cc3ccccc3)NC(=O)[C@H](C)NC(=O)[C@H](C)NC(=O)[C@H](CCC(=O)O)NC(=O)[C@H](CC(=O)O)NC1=O)NC(=O)[C@H](CC(C)C)NC(=O)[C@H](CC(=O)O)NC2=O (stereo partly drawn) [I-736, Ac-PL3-Asp-Leu-B5-Asp-Glu-Ala-Ala-Phe-Asn-S8-Phe-BztA-Gln-Aib-NH2] | 440 | 440 | 2.722 |  | 
CC[C@H](C)[C@H](NC(=O)[C@H](Cc1c[nH]cn1)NC(=O)[C@H](Cc1csc2ccccc12)NC(=O)[C@H](Cc1ccccc1)NC(=O)[C@]1(C)CCCCCCC=CCCCC2(CCCC=CC[C@]3(CCCN3C(C)=O)C(=O)N[C@@H](CC(=O)O)C(=O)N[C@@H](CC(C)C)C(=O)N2)C(=O)N[C@@H](CC(=O)O)C(=O)N[C@@H](CCC(=O)O)C(=O)N[C@@H](C)C(=O)N[C@@H](C)C(=O)N[C@@H](Cc2ccccc2)C(=O)N[C@@H](CC(N)=O)C(=O)N1)C(N)=O (stereo partly drawn) [I-740, Ac-PL3-Asp-Leu-B5-Asp-Glu-Ala-Ala-Phe-Asn-S8-Phe-BztA-His-Ile-NH2] | 376 | 376 | 2.822 |  | 
CC(=O)N1CCC[C@]12CC=CCCCC1(CCCC=CCCCCCC[C@@](C)(C(=O)N[C@@H](Cc3ccccc3)C(=O)N[C@@H](Cc3csc4ccccc34)C(=O)N[C@H](Cc3c[nH]cn3)C(N)=O)NC(=O)[C@H](CC(N)=O)NC(=O)[C@H](Cc3ccccc3)NC(=O)[C@H](C)NC(=O)[C@H](C)NC(=O)[C@H](CCC(=O)O)NC(=O)[C@H](CC(=O)O)NC1=O)NC(=O)[C@H](CC(C)C)NC(=O)[C@H](CC(=O)O)NC2=O (stereo partly drawn) [I-744, Ac-PL3-Asp-Leu-B5-Asp-Glu-Ala-Ala-Phe-Asn-S8-Phe-BztA-dHis-NH2] | 112 | 112 | 2.557 |  | 
CC(=O)N1CCC[C@]12CC=CCCCC1(CCCC=CCCCCCC[C@@](C)(C(=O)N[C@@H](Cc3ccccc3)C(=O)N[C@@H](Cc3csc4ccccc34)C(=O)N[C@H](C(N)=O)[C@@H](C)O)NC(=O)[C@H](CC(N)=O)NC(=O)[C@H](Cc3ccccc3)NC(=O)[C@H](C)NC(=O)[C@H](C)NC(=O)[C@H](CCC(=O)O)NC(=O)[C@H](CC(=O)O)NC1=O)NC(=O)[C@H](CC(C)C)NC(=O)[C@H](CC(=O)O)NC2=O (stereo partly drawn) [I-748, Ac-PL3-Asp-Leu-B5-Asp-Glu-Ala-Ala-Phe-Asn-S8-Phe-BztA-Thr-NH2] | 54 | 54 | 2.459 |  | 
CC(=O)N1CCC[C@]12CC=CCCCC1(CCCC=CCCCCCC[C@@](C)(C(=O)N[C@@H](Cc3ccccc3)C(=O)N[C@@H](Cc3csc4ccccc34)C(=O)N[C@@H](C(N)=O)[C@H](C)O)NC(=O)[C@H](CC(N)=O)NC(=O)[C@H](Cc3ccccc3)NC(=O)[C@H](C)NC(=O)[C@H](C)NC(=O)[C@H](CCC(=O)O)NC(=O)[C@H](CC(=O)O)NC1=O)NC(=O)[C@H](CC(C)C)NC(=O)[C@H](CC(=O)O)NC2=O (stereo partly drawn) [I-754, Ac-PL3-Asp-Leu-B5-Asp-Glu-Ala-Ala-Phe-Asn-S8-Phe-BztA-dThr-NH2] |  | 115 | 2.666 | 115 | 
CC(=O)N1CCC[C@]12CC=CCCCC1(CCCC=CCCCCCC[C@@](C)(C(=O)N[C@@H](Cc3ccccc3)C(=O)N[C@@H](Cc3csc4ccccc34)C(=O)N[C@H](CC(N)=O)C(N)=O)NC(=O)[C@H](CC(N)=O)NC(=O)[C@H](Cc3ccccc3)NC(=O)[C@H](C)NC(=O)[C@H](C)NC(=O)[C@H](CCC(=O)O)NC(=O)[C@H](CC(=O)O)NC1=O)NC(=O)[C@H](CC(C)C)NC(=O)[C@H](CC(=O)O)NC2=O (stereo partly drawn) [I-757, Ac-PL3-Asp-Leu-B5-Asp-Glu-Ala-Ala-Phe-Asn-S8-Phe-BztA-dAsn-NH2] |  | 64 | 2.546 | 64 | 
CC(=O)N1CCC[C@]12CC=CCCCC1(CCCC=CCCCCCC[C@@](C)(C(=O)N[C@@H](Cc3ccccc3)C(=O)N[C@@H](Cc3csc4ccccc34)C(=O)N(C)[C@@H](CO)C(N)=O)NC(=O)[C@H](CC(N)=O)NC(=O)[C@H](Cc3ccccc3)NC(=O)[C@H](C)NC(=O)[C@H](C)NC(=O)[C@H](CCC(=O)O)NC(=O)[C@H](CC(=O)O)NC1=O)NC(=O)[C@H](CC(C)C)NC(=O)[C@H](CC(=O)O)NC2=O (stereo partly drawn) [I-759, Ac-PL3-Asp-Leu-B5-Asp-Glu-Ala-Ala-Phe-Asn-S8-Phe-BztA-NMeS-NH2] |  | 1530 | 2.582 | 1530 | 
CC(=O)N1CCC[C@]12CC=CCCCC1(CCCC=CCCCCCC[C@@](C)(C(=O)N[C@@H](Cc3ccccc3)C(=O)N[C@@H](Cc3csc4ccccc34)C(=O)N(C)[C@@H](CO)C(N)=O)NC(=O)[C@H](CC(N)=O)NC(=O)[C@H](Cc3ccccc3)NC(=O)[C@H](C)NC(=O)[C@H](C)NC(=O)[C@H](CCC(=O)O)NC(=O)[C@H](CC(=O)O)NC1=O)NC(=O)[C@H](CC(C)C)NC(=O)[C@H](CC(=O)O)NC2=O (stereo partly drawn) [I-760, Ac-PL3-Asp-Leu-B5-Asp-Glu-Ala-Ala-Phe-Asn-S8-Phe-BztA-NMeS-NH2] |  | 608 | 2.66 | 608 | 

Next, values leading:

IC50 [1, 2] [nM] | IC50 ([1]; read-out: FP EC50) [nM] | CHI Log D (CHI Log D procedure) | IC50 ([1]; read-out: beta-Catenin FP IC50) [nM] | chromatographic logD (CHI Log D procedure) | Compound
 |  | 1.967 | 5 |  | CC(=O)N1CCC[C@]12CC=CCCCC1(CCCC=CCCCOC(=O)N3CC[C@@](C(=O)N[C@@H](Cc4ccsc4)C(=O)N[C@@H](Cc4csc5ccccc45)C(=O)N[C@@H](CCC(N)=O)C(N)=O)(C3)NC(=O)[C@H](CCC(N)=O)NC(=O)[C@H](Cc3ccccc3)NC(=O)[C@H](C)NC(=O)[C@H](C)NC(=O)[C@H](CC(=O)O)NC(=O)[C@H](CC(=O)O)NC1=O)NC(=O)[C@H](CC(C)(C)C)NC(=O)[C@H](CC(=O)O)NC2=O (stereo partly drawn) [I-763, Ac-PL3-Asp-Npg-B5-Asp-Asp-Ala-Ala-Phe-Gln-PyrS2-3Thi-BztA-Gln-NH2]
 |  |  | 106 | 2.07 | CC(=O)N1CCC[C@]12CC=CCCCC1(CCCC=CCCCOC(=O)N3CC[C@@](C(=O)N[C@@H](Cc4ccsc4)C(=O)N[C@@H](Cc4c[nH]c5cc(Cl)ccc45)C(=O)N[C@@H](Cc4c[nH]cn4)C(N)=O)(C3)NC(=O)[C@H](CC(N)=O)NC(=O)[C@H](Cc3ccccc3)NC(=O)[C@H](C)NC(=O)[C@H](C)NC(=O)[C@H](CC(=O)O)NC(=O)[C@H](CC(=O)O)NC1=O)NC(=O)[C@H](CC(C)(C)C)NC(=O)[C@H](CC(=O)O)NC2=O (stereo partly drawn) [I-798, Ac-PL3-Asp-Npg-B5-Asp-Asp-Ala-Ala-Phe-Asn-PyrS2-3Thi-6C1W-His-NH2]
 |  |  | 8 | 2.52 | CC(=O)N1CCC[C@]12CC=CCCCC1(CCCC=CCCCOC(=O)N3CC[C@@](C(=O)N[C@@H](Cc4ccsc4)C(=O)N[C@@H](Cc4csc5ccccc45)C(=O)N[C@@H](CCC(N)=O)C(N)=O)(C3)NC(=O)[C@H](Cc3ccccc3)NC(=O)[C@H](Cc3ccccc3)NC(=O)[C@H](C)NC(=O)[C@H](C)NC(=O)[C@H](Cc3ccccc3C(=O)O)NC(=O)[C@H](CC(=O)O)NC1=O)NC(=O)[C@H](CC(C)(C)C)NC(=O)[C@H](CC(=O)O)NC2=O (stereo partly drawn) [I-853, Ac-PL3-Asp-Npg-B5-Asp-2COOHF-Ala-Ala-Phe-Phe-PyrS2-3Thi-BztA-Gln-NH2]
 |  |  | 22 | 2.54 | CC(=O)N1CCC[C@]12CC=CCCCC1(CCCC=CCCCOC(=O)N3CC[C@@](C(=O)N[C@@H](Cc4ccsc4)C(=O)N[C@@H](Cc4csc5ccccc45)C(=O)N[C@@H](CCC(N)=O)C(N)=O)(C3)NC(=O)[C@H](Cc3ccccc3)NC(=O)[C@H](Cc3ccccc3)NC(=O)[C@H](C)NC(=O)[C@H](C)NC(=O)[C@H](CC(N)=O)NC(=O)[C@H](CC(=O)O)NC1=O)NC(=O)[C@H](CC(C)(C)C)NC(=O)[C@H](CC(=O)O)NC2=O (stereo partly drawn) [I-855, Ac-PL3-Asp-Npg-B5-Asp-Asn-Ala-Ala-Phe-Phe-PyrS2-3Thi-BztA-Gln-NH2]
 |  |  | 104 | 2.69 | CC(=O)N1CCC[C@]12CC=CCCCC1(CCCC=CCCCOC(=O)N3CC[C@@](C(=O)N[C@@H](Cc4ccsc4)C(=O)N[C@@H](Cc4csc5ccccc45)C(=O)N[C@@H](CCC(N)=O)C(=O)N[C@@H](CCCCNC(=O)CCc4cc(C(F)(F)F)cc(C(F)(F)F)c4)C(N)=O)(C3)NC(=O)[C@H](CC(N)=O)NC(=O)[C@H](Cc3ccccc3)NC(=O)[C@H](C)NC(=O)[C@H](C)NC(=O)[C@H](CC(=O)O)NC(=O)[C@H](CC(=O)O)NC1=O)NC(=O)[C@H](CC(C)(C)C)NC(=O)[C@H](CC(=O)O)NC2=O (stereo partly drawn) [I-902, Ac-PL3-Asp-Npg-B5-Asp-Asp-Ala-Ala-Phe-Asn-PyrS2-3Thi-BztA-Gln-[35CF3PhPr]Lys-NH2]
